This note sets out measurements from patent US9994554B2, “Barbiturate and thiobarbiturate compounds for use in cancer therapy” (NUHOPE, LLC, priority 2011, dated 2018).

Bounds are passed on as bounds.

The test system of this assay is U87-MG cells. The assay is described as follows: U87-MG resazurin cell assay (Example 13). It counts as cell-based. The conditions noted are these: Homo sapiens, U-87 MG; U87-MG, 5 days (120 hrs) incubation; read-out: Activity Score (Mean pXC50) (converted). On the procedure:
U87-MG cells were obtained from the ATCC, LGC Standards (#HTB-14). The cells were screened for mycoplasma (Mycoplasma Experience) and maintained in Biowhittaker Alpha MEM (Lonza #BE02-002F+10% dialyzed US FBS serum (Invitrogen #26400-044), 1% Penstrep (Gibco #15140-122).
Compounds to be tested were transferred into column 1 of a hit plate (96-well PPV Greiner #651201). 20 ul of DMSO was added to columns 2 to 11. The top concentration was 10 mM.
Serial dilution, ten-point one in three dilution curves were created using Perkin Elmer Janus (20 ul clear Robopack disposable tips #6000677 used).
2 ul of each of the compounds was transferred by pre-dispensing into black, clear bottom 96-well CellBIND Corning plates (Fisher #DPS-184-030R) using Platemate 2×2 (ThermoFisher Darts #5506).
200 μl of U87-MG cells were added to columns 1 to 11 at a density of 1000 cells per ml, and media only was dispensed into control column 12 using Wellmate (Small bore tubing set #201-30002).
After 5 days (120 hrs) incubation at 37° C. under 5% CO2 in a humidified incubator, the assay was “stopped” by addition of Resazurin sodium salt at 0.5 mM final concentration (Sigma R7017). The plates were incubated for a further 4 hrs before resorufin readout was taken from a Perkin Elmer EnVision, 550 nm excitation (photo550, Barcode 312), 580 nm emission (M580, Barcode 233), Top Mirror BODIPY (D555, Barcode 405).
Consider `O=C1NC(=O)C(=C/C=C/c2ccc(Cl)cc2Cl)C(=O)N1` [DDD00175271], for which the IC50 is 1 to 10 µM.
Regarding `CN1C(=O)C(=Cc2ccco2)C(=O)N(C)C1=O` [DDD00175280], the IC50 is > 100 µM.
With `CCN1C(=O)C(=C/C=C/c2ccc(Cl)cc2)C(=O)N(CC)C1=S` [DDD00175281], the IC50 is 31.6 to 100 µM.
In the case of `CN1C(=O)C(=C/C=C/c2ccccc2)C(=O)N(C)C1=O` [DDD00175285], the IC50 is 1 to 10 µM.
For the compound `O=C1NC(=O)C(=C/C=C/c2ccc(Cl)cc2)C(=O)N1` [DDD00175286], the IC50 is ≤ 1 µM.
For the compound `CCN1C(=O)C(=C/C=C/c2cccc(Cl)c2)C(=O)N(CC)C1=S` [DDD00175293], the IC50 is 31.6 to 100 µM.
Turning to `CCN1C(=O)NC(=O)/C(=C\C=C\c2cccc(Cl)c2)C1=O` [DDD00175297], the IC50 was ≤ 1 µM.
For the compound `O=C1NC(=O)C(=C/C=C/c2cccc(Cl)c2)C(=O)N1` [DDD00175302], the IC50 is ≤ 1 µM.
The result for `CCN1C(=O)NC(=O)/C(=C2\C=C(c3ccccc3)CCC2)C1=O` [DDD00175332] reads > 100 µM; that for `CCN1C(=O)C(=C2C=C(c3ccccc3)CCC2)C(=O)N(CC)C1=S` [DDD00175338], > 100 µM; that for `O=C1NC(=O)C(=C/C=C/c2ccccc2Cl)C(=O)N1` [DDD00175339], 1 to 10 µM.
Consider `CCN1C(=O)/C(=C\C=C\c2ccccc2)C(=O)N(C2CCOCC2)C1=O` [DDD00175789], for which the IC50 was 1 to 10 µM.
As for `O=C1NC(=O)C(=Cc2c[nH]c3ccccc23)C(=O)N1` [DDD00175790], the IC50 is > 100 µM.
In the case of `CN1C(=O)C(=Cc2c[nH]c3ccccc23)C(=O)N(C)C1=O` [DDD00175791], the IC50 was > 100 µM.
With `CCN1C(=O)/C(=C\C=C\c2ccco2)C(=O)N(C2CCOCC2)C1=O` [DDD00175792], the IC50 is 10 to 31.6 µM.
For `COc1ccc(/C=C/C=C2C(=O)N(C)C(=O)N(C)C2=O)cc1` [DDD00175794], the IC50 is 1 to 10 µM.
In the case of `CN1C(=O)C(=C/C=C/c2ccc(N(C)C)cc2)C(=O)N(C)C1=O` [DDD00175795], the IC50 was 31.6 to 100 µM.
For `Cc1ccc(/C=C/C=C2C(=O)NC(=O)NC2=O)cc1` [DDD00175796] the value was 1 to 10 µM; for `CCN1C(=O)NC(=O)/C(=C\C=C\c2ccc(OC)cc2)C1=O` [DDD00175797], 1 to 10 µM; for `Cc1ccc(/C=C/C=C2C(=O)NC(=S)NC2=O)cc1` [DDD00175798], 1 to 10 µM.
For `COc1ccc(/C=C/C=C2C(=O)NC(=O)NC2=O)cc1` [DDD00175799], the IC50 is 1 to 10 µM.
`CCN1C(=O)C(=C/C=C/c2ccc(OC)cc2)C(=O)N(CC)C1=S` [DDD00175800]: the IC50 is 31.6 to 100 µM.
With `CCN1C(=O)NC(=O)/C(=C\C=C\c2ccc(C)cc2)C1=O` [DDD00175801], the IC50 is 1 to 10 µM.
`N#Cc1ccc(/C=C/C=C2C(=O)NC(=O)NC2=O)cc1` [DDD00175802]: the IC50 was 10 to 31.6 µM.
For `CN(C)c1ccc(/C=C/C=C2C(=O)NC(=O)NC2=O)cc1` [DDD00175803], the IC50 is 10 to 31.6 µM.
For `CCN1C(=O)NC(=O)/C(=C\C=C\c2ccc(N(C)C)cc2)C1=O` [DDD00175804], the IC50 was 1 to 10 µM.
The result for `COc1ccc(/C=C/C=C2C(=O)NC(=S)NC2=O)cc1` [DDD00175805] reads 1 to 10 µM; that for `N#Cc1ccc(/C=C/C=C2C(=O)NC(=S)NC2=O)cc1` [DDD00175806], 31.6 to 100 µM.
For `CCN1C(=O)C(=C/C=C/c2ccc(C)cc2)C(=O)N(CC)C1=S` [DDD00175807] the value was 31.6 to 100 µM; for `O=C1NC(=O)C(=C/C=C/c2ccccc2F)C(=O)N1` [DDD00175808], 1 to 10 µM.
For the compound `Cc1ccccc1/C=C/C=C1C(=O)NC(=O)NC1=O` [DDD00175809], the IC50 is 1 to 10 µM.
With `CCN1C(=O)NC(=O)/C(=C\C=C\c2ccccc2F)C1=O` [DDD00175810], the IC50 was 1 to 10 µM.
For `CN1C(=O)C(=C/C=C/c2ccccc2F)C(=O)N(C)C1=O` [DDD00175811] the value was 1 to 10 µM; for `CCN1C(=O)NC(=O)/C(=C\C=C\c2ccccc2C)C1=O` [DDD00175813], 1 to 10 µM; for `CCN1C(=O)C(=C/C=C/c2ccccc2C)C(=O)N(CC)C1=S` [DDD00175816], 10 to 31.6 µM.
Consider `CCN1C(=O)NC(=O)/C(=C\C=C\c2ccccc2OC)C1=O` [DDD00175817], for which the IC50 was 1 to 10 µM.
As for `COc1ccccc1/C=C/C=C1C(=O)N(C)C(=O)N(C)C1=O` [DDD00175818], the IC50 was 1 to 10 µM.
With `COc1ccccc1/C=C/C=C1C(=O)NC(=S)NC1=O` [DDD00175819], the IC50 was 1 to 10 µM.
Turning to `O=C1NC(=O)C(=Cc2ccncc2)C(=O)N1` [DDD00175820], the IC50 is > 100 µM.
For `O=C1NC(=O)C(=Cc2ccccc2F)C(=O)N1` [DDD00175821], the IC50 is > 100 µM.
The result for `O=C1NC(=O)C(=Cc2cccc(F)c2)C(=O)N1` [DDD00175822] reads > 100 µM.
The result for `O=C1NC(=O)C(=Cc2cccc(Cl)c2)C(=O)N1` [DDD00175823] reads > 100 µM; that for `O=C1NC(=O)C(Cc2ccccc2)C(=O)N1` [DDD00175824], > 100 µM; that for `O=C1NC(=O)C(=CC2CCCCC2)C(=O)N1` [DDD00175825], > 100 µM.
As for `COc1ccc2c(c1)OCC(C=C1C(=O)N(C)C(=O)N(C)C1=O)=C2` [DDD00175826], the IC50 was 31.6 to 100 µM.
Take `COc1cccc(C=C2C(=O)NC(=O)NC2=O)c1` [DDD00175827]: the IC50 was > 100 µM.
Turning to `O=C1NC(=O)C(=Cc2ccccc2)C(=O)N1` [DDD00175828], the IC50 is > 100 µM.
For the compound `CN1C(=O)C(=CC2=Cc3cc(Cl)ccc3OC2)C(=O)N(C)C1=O` [DDD00175830], the IC50 is 31.6 to 100 µM.
Turning to `O=C1NC(=O)C(=Cc2ccc(F)cc2)C(=O)N1` [DDD00175831], the IC50 was > 100 µM.
Consider `COc1ccccc1/C=C/C=C1C(=O)NC(=O)NC1=O` [DDD00175832], for which the IC50 is 1 to 10 µM.
For `O=C1NC(=O)C(=Cc2cccnc2)C(=O)N1` [DDD00175833] the value was > 100 µM; for `O=C1NC(=O)C(=C/C=C/c2ccccc2[N+](=O)[O-])C(=O)N1` [DDD00175834], 1 to 10 µM; for `O=C1NC(=O)C(=CC2=Cc3ccccc3OC2)C(=O)N1` [DDD00175835], 31.6 to 100 µM.
The result for `O=C1NC(=O)C(=Cc2ccc(Cl)c(Cl)c2)C(=O)N1` [DDD00175836] reads > 100 µM.
Take `O=C1NC(=O)C(=Cc2ccccn2)C(=O)N1` [DDD00175837]: the IC50 was > 100 µM.
For `COc1ccc(C=C2C(=O)NC(=O)NC2=O)cc1` [DDD00175838] the value was > 100 µM.
In the case of `CCN1C(=O)C(=C/C=C/c2ccc(F)cc2)C(=O)N(CC)C1=S` [DDD00175839], the IC50 is 31.6 to 100 µM.
Consider `CCN1C(=O)/C(=C/C=C/c2ccc(F)cc2)C(=O)NC1=S` [DDD00175840], for which the IC50 is 31.6 to 100 µM.
Take `CCN1C(=O)NC(=O)/C(=C\C=C\c2ccc(F)cc2)C1=O` [DDD00175841]: the IC50 was 1 to 10 µM.
In the case of `O=C1NC(=O)C(=C/C=C/c2ccc(F)cc2)C(=O)N1` [DDD00175842], the IC50 was 1 to 10 µM.
For the compound `Cc1ccccc1/C=C/C=C1C(=O)NC(=S)NC1=O` [DDD00197329], the IC50 was 1 to 10 µM.
For `CCN1C(=O)/C(=C/C=C/c2ccccc2C)C(=O)NC1=S` [DDD00197330], the IC50 was 1 to 10 µM.
As for `O=C1NC(=O)C(=C/C=C/c2c(F)cccc2F)C(=O)N1` [DDD00197331], the IC50 was 1 to 10 µM.
As for `O=C1NC(=O)C(=C/C=C/c2cccc(F)c2)C(=O)N1` [DDD00197332], the IC50 is 1 to 10 µM.
As to `O=C1NC(=O)C(=C/C=C/c2cccnc2)C(=O)N1` [DDD00197336], the IC50 was 10 to 31.6 µM.
As for `CN(C)c1ccccc1/C=C/C=C1C(=O)NC(=S)NC1=O` [DDD00197337], the IC50 is 10 to 31.6 µM.
On to `CN1C(=O)C(=C/C=C/c2ccccc2N(C)C)C(=O)N(C)C1=O` [DDD00197338], for which the IC50 was 1 to 10 µM.
For the compound `O=C1NC(=S)NC(=O)C1=C/C=C/c1cccc(F)c1` [DDD00197339], the IC50 was 1 to 10 µM.
On to `CCN1C(=O)NC(=O)/C(=C\C=C\c2cccc(N(C)C)c2)C1=O` [DDD00197341], for which the IC50 was 1 to 10 µM.
In the case of `CCN1C(=O)C(=C/C=C/c2ccc(N(C)C)cc2)C(=O)N(CC)C1=S` [DDD00197342], the IC50 was 31.6 to 100 µM.
As for `CN1C(=O)C(=C/C=C/c2c(F)cccc2F)C(=O)N(C)C1=O` [DDD00197343], the IC50 is 1 to 10 µM.
In the case of `CCN1C(=O)NC(=O)/C(=C\C=C\c2ccccc2N(C)C)C1=O` [DDD00197344], the IC50 was 1 to 10 µM.
Consider `CCN1C(=O)C(=C/C=C/c2c(F)cccc2F)C(=O)N(CC)C1=S` [DDD00197345], for which the IC50 was 31.6 to 100 µM.
The result for `CN1C(=O)C(=C/C=C/c2cccc(N(C)C)c2)C(=O)N(C)C1=O` [DDD00197346] reads 1 to 10 µM.
Take `CCN1C(=O)NC(=O)/C(=C\C=C\c2cccc(F)c2)C1=O` [DDD00197347]: the IC50 was 1 to 10 µM.
The result for `N#Cc1ccccc1/C=C/C=C1C(=O)NC(=O)NC1=O` [DDD00197348] reads 1 to 10 µM; that for `O=C1NC(=S)NC(=O)C1=C/C=C/c1ccccc1F` [DDD00197349], 1 to 10 µM; that for `CCN1C(=O)C(=C/C=C/c2ccccc2OC)C(=O)N(CC)C1=S` [DDD00197350], 10 to 31.6 µM.
